Data reported in ChEMBL document CHEMBL3612057, “Discovery of indolizines containing triazine moiety as new leads for the development of antitumoral agents targeting mitotic events” (2015).
Calls of active or inactive are those of the source. The rule behind the calls is not given here.

Assays:
CCRF-CEM = experiment: Cytotoxicity against human CCRF-CEM cells assessed as growth inhibition at 10 uM after 24 hrs by SRB assay; assay type: functional
HL-60(TB) = experiment: Cytotoxicity against human HL-60(TB) cells assessed as growth inhibition at 10 uM after 24 hrs by SRB assay; assay type: functional
K562 = experiment: Cytotoxicity against human K562 cells assessed as growth inhibition at 10 uM after 24 hrs by SRB assay; assay type: functional
RPMI-8226 = experiment: Cytotoxicity against human RPMI8226 cells assessed as growth inhibition at 10 uM after 24 hrs by SRB assay; assay type: functional
SR = experiment: Cytotoxicity against human SR cells assessed as growth inhibition at 10 uM after 24 hrs by SRB assay; assay type: functional
A549 = experiment: Cytotoxicity against human A549 cells assessed as growth inhibition at 10 uM after 24 hrs by SRB assay; assay type: functional
HOP-62 [1] = experiment: Cytotoxicity against human HOP62 cells assessed as growth inhibition at 10 uM after 24 hrs by SRB assay; assay type: functional
HOP-92 [2] = experiment: Cytotoxicity against human HOP92 cells assessed as growth inhibition at 10 uM after 24 hrs by SRB assay; assay type: functional
NCI-H226 = experiment: Cytotoxicity against human NCI-H226 cells assessed as growth inhibition at 10 uM after 24 hrs by SRB assay; assay type: functional
NCI-H460 = experiment: Cytotoxicity against human NCI-H460 cells assessed as growth inhibition at 10 uM after 24 hrs by SRB assay; assay type: functional
NCI-H522 = experiment: Cytotoxicity against human NCI-H522 cells assessed as growth inhibition at 10 uM after 24 hrs by SRB assay; assay type: functional
HCT-116 = experiment: Cytotoxicity against human HCT116 cells assessed as growth inhibition at 10 uM after 24 hrs by SRB assay; assay type: functional
SF-295 = experiment: Cytotoxicity against human SF295 cells assessed as growth inhibition at 10 uM after 24 hrs by SRB assay; assay type: functional
SF-539 = experiment: Cytotoxicity against human SF539 cells assessed as growth inhibition at 10 uM after 24 hrs by SRB assay; assay type: functional
SNB-75 [3] = experiment: Cytotoxicity against human SNB75 cells assessed as growth inhibition at 10 uM after 24 hrs by SRB assay; assay type: functional; settings: SNB-75, 24 h, read-out: GI
U-251 = experiment: Cytotoxicity against human U251 cells assessed as growth inhibition at 10 uM after 24 hrs by SRB assay; assay type: functional
Malme-3M = experiment: Cytotoxicity against human MALME-3M cells assessed as growth inhibition at 10 uM after 24 hrs by SRB assay; assay type: functional
MDA-MB-435 = experiment: Cytotoxicity against human MDA-MB-435 cells assessed as growth inhibition at 10 uM after 24 hrs by SRB assay; assay type: functional
SK-MEL-28 = experiment: Cytotoxicity against human SK-MEL-28 cells assessed as growth inhibition at 10 uM after 24 hrs by SRB assay; assay type: functional
SK-MEL-5 = experiment: Cytotoxicity against human SK-MEL-5 cells assessed as growth inhibition at 10 uM after 24 hrs by SRB assay; assay type: functional
UACC-257 = experiment: Cytotoxicity against human UACC257 cells assessed as growth inhibition at 10 uM after 24 hrs by SRB assay; assay type: functional; settings: UACC-257, 24 h, read-out: GI
UACC-62 = experiment: Cytotoxicity against human UACC62 cells assessed as growth inhibition at 10 uM after 24 hrs by SRB assay; assay type: functional
OVCAR-3 = experiment: Cytotoxicity against human OVCAR3 cells assessed as growth inhibition at 10 uM after 24 hrs by SRB assay; assay type: functional
OVCAR-4 = experiment: Cytotoxicity against human OVCAR4 cells assessed as growth inhibition at 10 uM after 24 hrs by SRB assay; assay type: functional
OVCAR-8 = experiment: Cytotoxicity against human OVCAR8 cells assessed as growth inhibition at 10 uM after 24 hrs by SRB assay; assay type: functional
NCI/ADR-RES = experiment: Cytotoxicity against human NCI/ADR-RES cells assessed as growth inhibition at 10 uM after 24 hrs by SRB assay; assay type: functional
SK-OV-3 = experiment: Cytotoxicity against human SKOV3 cells assessed as growth inhibition at 10 uM after 24 hrs by SRB assay; assay type: functional
786-0 [4] = experiment: Cytotoxicity against human 786-0 cells assessed as growth inhibition at 10 uM after 24 hrs by SRB assay; assay type: functional
ACHN = experiment: Cytotoxicity against human ACHN cells assessed as growth inhibition at 10 uM after 24 hrs by SRB assay; assay type: functional
CAKI-1 = experiment: Cytotoxicity against human CAKI-1 cells assessed as growth inhibition at 10 uM after 24 hrs by SRB assay; assay type: functional
RXF 393 [5] = experiment: Cytotoxicity against human RXF393 cells assessed as growth inhibition at 10 uM after 24 hrs by SRB assay; assay type: functional; settings: RXF 393, 24 h, read-out: GI
TK-10 = experiment: Cytotoxicity against human TK10 cells assessed as growth inhibition at 10 uM after 24 hrs by SRB assay; assay type: functional
PC-3 = experiment: Cytotoxicity against human PC3 cells assessed as growth inhibition at 10 uM after 24 hrs by SRB assay; assay type: functional
MCF7 = experiment: Cytotoxicity against human MCF7 cells assessed as growth inhibition at 10 uM after 24 hrs by SRB assay; assay type: functional
MDA-MB-231 = experiment: Cytotoxicity against human MDA-MB-231 cells assessed as growth inhibition at 10 uM after 24 hrs by SRB assay; assay type: functional; settings: MDA-MB-231, 24 h, read-out: GI
Hs-578T = experiment: (§1) Cytotoxicity against human Hs578T cells assessed as growth inhibition at 10 uM after 24 hrs by SRB assay; assay type: functional
T47D = experiment: Cytotoxicity against human T47D cells assessed as growth inhibition at 10 uM after 24 hrs by SRB assay; assay type: functional
Ovis aries = species on record: Ovis aries; experiment: Inhibition of sheep tubulin polymerization at 100 uM by fluorescence assay
[6] = as §1; assay type: functional; settings: Hs-578T, read-out: GI
SNB-75 [7] = experiment: Cytotoxicity against human SNB75 cells after 48 hrs by SRB assay; assay type: functional; settings: SNB-75, 48 h
786-0 [8] = experiment: Cytotoxicity against human 786-0 cells after 48 hrs by SRB assay; assay type: functional; settings: 786-0, 48 h
RXF 393 [9] = experiment: Cytotoxicity against human RXF393 cells after 48 hrs by SRB assay; assay type: functional; settings: RXF 393, 48 h
HOP-62 [10] = experiment: Cytotoxicity against human HOP62 cells after 48 hrs by SRB assay; assay type: functional; settings: HOP-62, 48 h
HOP-92 [11] = experiment: Cytotoxicity against human HOP92 cells after 48 hrs by SRB assay; assay type: functional; settings: HOP-92, 48 h

SMILES: COc1nc(OC)nc(-c2cc(C(=O)c3ccc(Br)cc3)n3ccc(C#N)cc23)n1
- growth inhibition (GI) (CCRF-CEM): inactive
- growth inhibition (GI) (HL-60(TB)): inactive
- growth inhibition (GI) (K562): inactive
- growth inhibition (GI) (RPMI-8226): inactive
- growth inhibition (GI) (SR): inactive
- growth inhibition (GI) (A549): inactive
- growth inhibition (GI) (HOP-62 [1]): inactive
- growth inhibition (GI) (HOP-92 [2]): inactive
- growth inhibition (GI) (NCI-H226): inactive
- growth inhibition (GI) (NCI-H460): inactive
- growth inhibition (GI) (NCI-H522): inactive
- growth inhibition (GI) (HCT-116): inactive
- growth inhibition (GI) (SF-295): inactive
- growth inhibition (GI) (SF-539): inactive
- inhibition of growth at 10 µM (SNB-75 [3]): 27%
- growth inhibition (GI) (U-251): inactive
- growth inhibition (GI) (Malme-3M): inactive
- growth inhibition (GI) (MDA-MB-435): inactive
- growth inhibition (GI) (SK-MEL-28): inactive
- growth inhibition (GI) (SK-MEL-5): inactive
- inhibition of growth at 10 µM (UACC-257): 11%
- growth inhibition (GI) (UACC-62): inactive
- growth inhibition (GI) (OVCAR-3): inactive
- growth inhibition (GI) (OVCAR-4): inactive
- growth inhibition (GI) (OVCAR-8): inactive
- growth inhibition (GI) (NCI/ADR-RES): inactive
- growth inhibition (GI) (SK-OV-3): inactive
- growth inhibition (GI) (786-0 [4]): inactive
- growth inhibition (GI) (ACHN): inactive
- growth inhibition (GI) (CAKI-1): inactive
- inhibition of growth at 10 µM (RXF 393 [5]): 14%
- growth inhibition (GI) (TK-10): inactive
- growth inhibition (GI) (PC-3): inactive
- growth inhibition (GI) (MCF7): inactive
- inhibition of growth at 10 µM (MDA-MB-231): 11%
- growth inhibition (GI) (Hs-578T): inactive
- growth inhibition (GI) (T47D): inactive
- inhibition (Ovis aries): inactive

SMILES: COc1nc(OC)nc(-c2cc(C(=O)c3ccc(Br)cc3)n3ccc4ccccc4c23)n1
- growth inhibition (GI) (CCRF-CEM): inactive
- growth inhibition (GI) (HL-60(TB)): inactive
- growth inhibition (GI) (K562): inactive
- growth inhibition (GI) (RPMI-8226): inactive
- growth inhibition (GI) (SR): inactive
- inhibition of growth at 10 µM (A549; A549, 24 h, read-out: GI): 55%
- growth inhibition (GI) (HOP-62 [1]): inactive
- growth inhibition (GI) (HOP-92 [2]): inactive
- inhibition of growth at 10 µM (NCI-H226; NCI-H226, 24 h, read-out: GI): 28%
- inhibition of growth at 10 µM (NCI-H460; NCI-H460, 24 h, read-out: GI): 71%
- growth inhibition (GI) (NCI-H522): inactive
- growth inhibition (GI) (HCT-116): inactive
- inhibition of growth at 10 µM (SF-295; SF-295, 24 h, read-out: GI): 76%
- growth inhibition (GI) (SF-539): inactive
- inhibition of growth at 10 µM (SNB-75 [3]): 75%
- growth inhibition (GI) (U-251): inactive
- inhibition of growth at 10 µM (Malme-3M; read-out: GI): 67%
- growth inhibition (GI) (MDA-MB-435): inactive
- inhibition of growth at 10 µM (SK-MEL-28; SK-MEL-28, 24 h, read-out: GI): 52%
- growth inhibition (GI) (SK-MEL-5): inactive
- inhibition of growth at 10 µM (UACC-257): 32%
- growth inhibition (GI) (UACC-62): inactive
- inhibition of growth at 10 µM (OVCAR-3; OVCAR-3, 24 h, read-out: GI): 51%
- inhibition of growth at 10 µM (OVCAR-4; OVCAR-4, 24 h, read-out: GI): 33%
- inhibition of growth at 10 µM (OVCAR-8; OVCAR-8, 24 h, read-out: GI): 50%
- inhibition of growth at 10 µM (NCI/ADR-RES; read-out: GI): 46%
- growth inhibition (GI) (SK-OV-3): inactive
- inhibition of growth at 10 µM (786-0 [4]; 786-0, 24 h, read-out: GI): 81%
- inhibition of growth at 10 µM (ACHN; read-out: GI): 29%
- inhibition of growth at 10 µM (CAKI-1; CAKI-1, 24 h, read-out: GI): 44%
- inhibition of growth at 10 µM (RXF 393 [5]): 81%
- growth inhibition (GI) (TK-10): inactive
- inhibition of growth at 10 µM (PC-3; PC-3, 24 h, read-out: GI): 58%
- inhibition of growth at 10 µM (MCF7; MCF7, 24 h, read-out: GI): 60%
- inhibition of growth at 10 µM (MDA-MB-231): 96%
- inhibition of growth at 10 µM [6]: 65%
- inhibition of growth at 10 µM (T47D; read-out: GI): 38%
- GI50 (SNB-75 [7]): 2.58 µM
- GI50 (786-0 [8]): 4.06 µM
- GI50 (RXF 393 [9]): 3.57 µM
- GI50 (HOP-62 [10]): 22.8 µM
- GI50 (HOP-92 [11]): 13.2 µM
- inhibition (Ovis aries): inactive
